The nature of data set [1]: Plasma pharmacokinetics after oral SNX-5422. The class given is in vivo, human.
For data set [2], the system named is head and neck squamous cancer cell lines. The conditions noted are these: cited from earlier work.
The subject of data set [3] is patients with advanced lung cancers. The data set is described as follows: Dose determination. It counts as in vivo, human. The conditions noted are these: for Dose-limiting toxicities (DLTs): cycle 1, with carboplatin-paclitaxel.
For data set [4] the test system is unchanged. The conditions noted are these: human, in vivo.
A further data set has as its system patients with NSCLC. The data set is described as follows: Anti-tumor activity. It counts as in vivo, human.
For data set [5], the system named is patients with solid tumors. The conditions noted are these: SNX-5422 alone; cited from earlier work.
Setting [6] is: SNX-5422 doses of 50, 75, and 100 mg/m^2.

The values below come from paper PMC8642306 (Lung cancer (Amsterdam, Netherlands), 2021).

As usually defined, the half-life is how long it takes for the measured level to halve. The low end stands for fast loss, the high end for slow loss.

The structures appear in SMILES notation. Several values for one entry are separate records, joined by “and”; a condition that tells them apart may be missing. Identical values can stand only once.

On to `CC1(C)CC(=O)c2c(C(F)(F)F)nn(-c3ccc(C(N)=O)c(N[C@H]4CC[C@H](O)CC4)c3)c2C1` [SNX-2112], for which, in data set [1] (setting [6]), the “AUC0–24 of SNX-2112, dose proportionality” value is “increased in a slightly greater than proportional manner” and the “Maximum plasma concentration of SNX-2112, dose proportionality” value is reported as “increased in approximate proportion to dose”. Also, the half-life in data set [1] (human, plasma, po) was ~8 h. For the same molecule, the “Activity with carboplatin and paclitaxel” value in data set [2] was “combinatorial activity”.

On to `CC1(C)CC(=O)c2c(C(F)(F)F)nn(-c3ccc(C(N)=O)c(N[C@H]4CC[C@H](OC(=O)CN)CC4)c3)c2C1` [SNX-5422], for which, in data set [3] (50 mg/m^2 cohort (n=3)), the “Dose-limiting toxicities (DLTs)” value is “no DLTs”. The “Dose-limiting toxicities (DLTs)” value in data set [3] (75 mg/m^2 cohort (n=4)) is on record as “no DLTs”. Moreover, the “Maximum tolerated dose (MTD) of SNX-5422” value in data set [3] (qod, in combination with carboplatin (AUC 5) and paclitaxel (175 mg/m^2)) worked out at 100 mg/m^2. In data set [4], the “Any treatment-related AE, All Grade” value was 7 (54) n (%); the “Any treatment-related AE, Grade 1” value is 1 (8) n (%); the “Any treatment-related AE, Grade 2” value is recorded as 4 (31) n (%); the “Any treatment-related AE, Grade 3” value is 2 (15) n (%). Besides, in data set [4], the “Any treatment-related AE, Grade 4” value was 0 n (%); the “Decreased appetite, All Grade” value is listed as 2 (15) n (%); the “Decreased appetite, Grade 1” value is recorded as 1 (8) n (%); the “Decreased appetite, Grade 2” value is 1 (8) n (%). In addition, in data set [4], the “Decreased appetite, Grade 3” value was 0 n (%); the “Decreased appetite, Grade 4” value was 0 n (%); the “Diarrhea, All Grade” value was 3 (23) n (%); the “Diarrhea, Grade 1” value is 0 n (%). Also, in data set [4], the “Diarrhea, Grade 2” value is given as 1 (8) n (%); the “Diarrhea, Grade 3” value is 2 (15) n (%); the “Diarrhea, Grade 4” value is listed as 0 n (%); the “Fatigue, All Grade” value was 2 (15) n (%). In data set [4], the “Fatigue, Grade 1” value was 1 (8) n (%); the “Fatigue, Grade 2” value is listed as 1 (8) n (%); the “Fatigue, Grade 3” value is recorded as 0 n (%); the “Fatigue, Grade 4” value is 0 n (%). Besides, in data set [4], the “Nausea, All Grade” value is given as 2 (15) n (%); the “Nausea, Grade 1” value is recorded as 2 (15) n (%); the “Nausea, Grade 2” value is 0 n (%); the “Nausea, Grade 3” value is on record as 0 n (%). In data set [4], the “Nausea, Grade 4” value is 0 n (%); the Treatment-related decreased appetite was 15%; the Treatment-related diarrhea was 23%; the Treatment-related fatigue is 15%. Moreover, in data set [4], the “Treatment-related grade 3/4 diarrhea” value was determined as 15%, the “Treatment-related grade 3/4 nausea” value is recorded as 0% and the Treatment-related nausea came to 15%. In addition, in data set [1] (oral SNX-5422), the “Concentrations of SNX-5422 in samples collected after dosing” value is recorded as “no measurable concentrations”. Moreover, the “Duration of disease control on single-agent maintenance” value with patients with NSCLC (HER2, RET, KRAS, and EGFR-mutations) was 4–12 months. In addition, the “Time on SNX-5422 maintenance” value in the data set on patients with NSCLC (another patient with KRAS-mutant NSCLC, unconfirmed response) is ~ 5 months. The “Time on SNX-5422 maintenance” value in the data set with patients with NSCLC (one patient with HER2-mutant NSCLC, partial response) is 12 months and ~ 12 months. Also, the “Time on SNX-5422 maintenance prior to progression” value in the data set with patients with NSCLC (one patient with KRAS-mutant NSCLC, partial response) is listed as ~ 7 months. Besides, in data set [5], the “Single-agent maximum tolerated dose (MTD)” value is given as 100 mg/m^2.
